Laboratory results taken from the supplement of paper PMC10627819.

Assays:
[1] = tested on: B. subtilis 168; assay: fitness (endpoint OD595 vs no drug) (fraction); higher = more growth
Outline: (§1)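 Plates with 384 wells were inoculated at OD595 0.01 using 30 µl of TSB, LB Lennox or CY, or 55 µl for S. pneumoniae. Incubation was at 37 °C, with OD595 measured every 30 min for 14 h. Fitness is the stationary-phase transition optical density over the robust mean of no-drug control wells, after first-reading background subtraction; it is capped at 1.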

[2] = tested on: S. aureus DSM 20231; assay: as above
Outline: as §1

[3] = tested on: S. pneumoniae D39V; assay: as above
Outline: as §1

[4] = tested on: S. aureus Newman; assay: Bliss interaction score (quartile over a dose matrix) (fitness difference); higher = more antagonism (negative = synergy)
Outline: (§2)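 Each plate was normalised to the robust mean of its own no-drug wells, using OD595 at entry into stationary phase, with values capped at 1. This normalised growth is the fitness value. The Bliss score is the difference between observed and product-expected fitness, with single-drug fitness inferred from the combination data and quartiles taken over technical, biological and donor/recipient replicates.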

[5] = tested on: B. subtilis 168; assay: as above
Outline: as §2

[6] = tested on: S. aureus DSM 20231; assay: as above
Outline: as §2

[7] = tested on: S. pneumoniae D39V; assay: as above
Outline: as §2
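Wherever Bliss interaction score (quartile over a dose matrix) is given: first quartile when negative (synergy) and third quartile when positive (antagonism).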

CC(=O)NC[C@H]1CN(c2ccc(N3CCOCC3)c(F)c2)C(=O)O1 [Linezolid] + COc1c(N2C[C@@H]3CCCN[C@@H]3C2)c(F)cc2c(=O)c(C(=O)O)cn(C3CC3)c12 [Moxifloxacin]
one replicate
Settings | fitness
[1], first compound 0.0625 µg/mL, partner 0.0312 µg/mL | 0.0541
[1], first compound 0.0625 µg/mL, partner 0.0625 µg/mL | 0.0464
[1], first compound 0.0625 µg/mL, partner 0.125 µg/mL | 0.0299
[2], first compound 0.125 µg/mL, partner 0.06 µg/mL | 0.712
[2], first compound 0.125 µg/mL, partner 0.12 µg/mL | 0.535
[2], first compound 0.25 µg/mL, partner 0.06 µg/mL | 0.655
[2], first compound 0.25 µg/mL, partner 0.12 µg/mL | 0.536
[2], first compound 0.5 µg/mL, partner 0.06 µg/mL | 0.44
[2], first compound 0.5 µg/mL, partner 0.12 µg/mL | 0.368
[2], first compound 1 µg/mL, partner 0.0075 µg/mL | 0.0168
[2], first compound 1 µg/mL, partner 0.015 µg/mL | 0.0282
[2], first compound 1 µg/mL, partner 0.03 µg/mL | 0.0258

Settings | fitness
[1], first compound 0.125 µg/mL, partner 0.0312 µg/mL | 0.0559
[1], first compound 0.125 µg/mL, partner 0.0625 µg/mL | 0.0387
[1], first compound 0.125 µg/mL, partner 0.125 µg/mL | 0.0364
[1], first compound 0.125 µg/mL, partner 2 µg/mL | 0.036
[1], first compound 0.125 µg/mL, partner 4 µg/mL | 0.0272
[1], first compound 0.125 µg/mL, partner 8 µg/mL | 0.0181
[1], first compound 0.25 µg/mL, partner 0.0312 µg/mL | 0.242
[1], first compound 0.25 µg/mL, partner 0.0625 µg/mL | 0.0554
[1], first compound 0.25 µg/mL, partner 0.125 µg/mL | 0.0577
[1], first compound 0.25 µg/mL, partner 2 µg/mL | 0.0241
[1], first compound 0.25 µg/mL, partner 4 µg/mL | 0.0237
[1], first compound 0.25 µg/mL, partner 8 µg/mL | 0.0144
[1], first compound 0.5 µg/mL, partner 0.0312 µg/mL | 0.044
[1], first compound 0.5 µg/mL, partner 0.0625 µg/mL | 0.0596
[1], first compound 0.5 µg/mL, partner 0.125 µg/mL | 0.0457
[1], first compound 0.5 µg/mL, partner 2 µg/mL | 0.0308
[1], first compound 0.5 µg/mL, partner 4 µg/mL | 0.021
[1], first compound 0.5 µg/mL, partner 8 µg/mL | 0.0223
[2], first compound 0.125 µg/mL, partner 0.0075 µg/mL | 0.795
[2], first compound 0.125 µg/mL, partner 0.015 µg/mL | 0.743
[2], first compound 0.125 µg/mL, partner 0.03 µg/mL | 0.671
[2], first compound 0.25 µg/mL, partner 0.0075 µg/mL | 0.541
[2], first compound 0.25 µg/mL, partner 0.015 µg/mL | 0.5
[2], first compound 0.25 µg/mL, partner 0.03 µg/mL | 0.582
[2], first compound 0.5 µg/mL, partner 0.0075 µg/mL | 0.12
[2], first compound 0.5 µg/mL, partner 0.015 µg/mL | 0.178
[2], first compound 0.5 µg/mL, partner 0.03 µg/mL | 0.272
[3], first compound 0.105 µg/mL, partner 0.0037 µg/mL | 0.739
[3], first compound 0.105 µg/mL, partner 0.0075 µg/mL | 0.741
[3], first compound 0.105 µg/mL, partner 0.015 µg/mL | 0.73
[3], first compound 0.2 µg/mL, partner 0.005 µg/mL | 0.839
[3], first compound 0.2 µg/mL, partner 0.01 µg/mL | 0.858
[3], first compound 0.2 µg/mL, partner 0.02 µg/mL | 0.826
[3], first compound 0.21 µg/mL, partner 0.0037 µg/mL | 0.647
[3], first compound 0.21 µg/mL, partner 0.0075 µg/mL | 0.651
[3], first compound 0.21 µg/mL, partner 0.015 µg/mL | 0.624
[3], first compound 0.4 µg/mL, partner 0.005 µg/mL | 0.704
[3], first compound 0.4 µg/mL, partner 0.01 µg/mL | 0.715
[3], first compound 0.4 µg/mL, partner 0.02 µg/mL | 0.68
[3], first compound 0.42 µg/mL, partner 0.0037 µg/mL | 0.366
[3], first compound 0.42 µg/mL, partner 0.0075 µg/mL | 0.424
[3], first compound 0.42 µg/mL, partner 0.015 µg/mL | 0.449
[3], first compound 0.8 µg/mL, partner 0.005 µg/mL | 0.45
[3], first compound 0.8 µg/mL, partner 0.02 µg/mL | 0.461

Settings | Bliss interaction score
[4] | 0.074
[5] | 0.0351
[6] | 0.0931
[7] | 0.0972

CC(=O)NC[C@H]1CN(c2ccc(N3CCOCC3)c(F)c2)C(=O)O1 [Linezolid] + COc1cc(Cc2cnc(N)nc2N)cc(OC)c1OC [Trimethoprim]
one replicate
Settings | fitness
[1], first compound 0.0625 µg/mL, partner 0.125 µg/mL | 0.455
[1], first compound 0.0625 µg/mL, partner 0.25 µg/mL | 0.379
[1], first compound 0.0625 µg/mL, partner 0.5 µg/mL | 0.365
[1], first compound 0.125 µg/mL, partner 0.1 µg/mL | 0.661
[1], first compound 0.125 µg/mL, partner 0.2 µg/mL | 0.51
[1], first compound 0.125 µg/mL, partner 0.4 µg/mL | 0.458
[1], first compound 0.125 µg/mL, partner 1 µg/mL | 0.338
[1], first compound 0.125 µg/mL, partner 2 µg/mL | 0.252
[1], first compound 0.25 µg/mL, partner 0.1 µg/mL | 0.224
[1], first compound 0.25 µg/mL, partner 0.2 µg/mL | 0.137
[1], first compound 0.25 µg/mL, partner 0.4 µg/mL | 0.0855
[1], first compound 0.25 µg/mL, partner 1 µg/mL | 0.0539
[1], first compound 0.25 µg/mL, partner 2 µg/mL | 0.0332
[1], first compound 0.5 µg/mL, partner 0.1 µg/mL | 0.0326
[1], first compound 0.5 µg/mL, partner 0.125 µg/mL | 0.0335
[1], first compound 0.5 µg/mL, partner 0.2 µg/mL | 0.0707
[1], first compound 0.5 µg/mL, partner 0.4 µg/mL | 0.034
[1], first compound 0.5 µg/mL, partner 1 µg/mL | 0.0459
[1], first compound 0.5 µg/mL, partner 2 µg/mL | 0.0328
[2], first compound 0.125 µg/mL, partner 0.125 µg/mL | 0.693
[2], first compound 1 µg/mL, partner 0.125 µg/mL | 0.0426
[2], first compound 1 µg/mL, partner 0.25 µg/mL | 0.0292
[2], first compound 1 µg/mL, partner 0.5 µg/mL | 0.0293

fitness
Settings | partner 0.125 µg/mL | partner 0.25 µg/mL | partner 0.5 µg/mL | partner 1 µg/mL
[1], first compound 0.125 µg/mL | 0.481 | – | – | –
[1], first compound 0.25 µg/mL | 0.178 | 0.239 | 0.149 | –
[1], first compound 0.5 µg/mL | – | 0.0539 | 0.0519 | –
[2], first compound 0.125 µg/mL | – | 0.7 | 0.54 | 0.0522
[2], first compound 0.25 µg/mL | 0.511 | 0.566 | 0.462 | 0.118
[2], first compound 0.5 µg/mL | 0.157 | 0.153 | 0.139 | 0.115

Settings | Bliss interaction score
[4] | 0.096
[5] | 0.0503
[6] | 0.129
[7] | -0.161
